This is an account of results in ChEMBL document CHEMBL3124876, “A perylene derivative regulates HIF-1α and Stat3 signaling pathways” (Bioorg Med Chem, 2014).

This experiment addresses Signal transducer and activator of transcription 3 (Homo sapiens) (UniProt P40763). Description: Inhibition of Stat3 phosphorylation in human MDA-MB-231 cells assessed as inhibition of c-Myc expression at 1 to 20 uM by Western blotting analysis. The class given is cell-based.

Active and inactive are the calls of the source. The rule behind the calls is not given here.

Signal transducer and activator of transcription 3 (Homo sapiens), sequence (P40763 whole entry): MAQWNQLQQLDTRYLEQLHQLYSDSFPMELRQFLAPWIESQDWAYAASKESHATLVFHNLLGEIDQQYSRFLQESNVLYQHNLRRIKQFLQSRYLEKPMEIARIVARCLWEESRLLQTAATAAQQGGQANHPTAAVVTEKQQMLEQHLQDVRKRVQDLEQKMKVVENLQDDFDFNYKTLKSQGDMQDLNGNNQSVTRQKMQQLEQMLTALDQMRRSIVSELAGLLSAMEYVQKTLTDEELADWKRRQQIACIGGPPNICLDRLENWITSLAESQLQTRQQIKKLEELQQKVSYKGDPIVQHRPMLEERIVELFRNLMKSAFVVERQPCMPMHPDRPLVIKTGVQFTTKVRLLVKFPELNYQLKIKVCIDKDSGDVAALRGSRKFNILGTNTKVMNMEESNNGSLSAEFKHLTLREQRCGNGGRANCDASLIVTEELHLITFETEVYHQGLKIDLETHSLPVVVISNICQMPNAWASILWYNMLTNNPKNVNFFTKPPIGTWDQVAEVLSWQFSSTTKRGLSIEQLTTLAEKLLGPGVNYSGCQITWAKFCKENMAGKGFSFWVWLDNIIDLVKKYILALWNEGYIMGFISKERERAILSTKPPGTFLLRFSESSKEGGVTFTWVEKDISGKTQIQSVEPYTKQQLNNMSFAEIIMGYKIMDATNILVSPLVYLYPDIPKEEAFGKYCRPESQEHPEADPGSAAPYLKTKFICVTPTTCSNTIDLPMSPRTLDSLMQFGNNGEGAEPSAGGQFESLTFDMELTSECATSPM

As to `CN(C)CCCN1C(=O)c2ccc3c4ccc5c6c(ccc(c7ccc(c2c37)C1=O)c64)C(=O)N(CCCN(C)C)C5=O`, the inhibition entry was “Active”.
